Reference: article PMC6272185 (Molecules, 2015)
≈ marks a conversion by molar mass, not a printed value. Where two headings read alike, the source gives them in different places.

How the values were obtained:
M. bovis BCG = test: microbe, parasite or virus in culture; format: cell-based, Mycobacterium bovis BCG; settings: Mycobacterium tuberculosis variant bovis BCG, BCG, 168 h; for MIC50: read-out: MIC50 M. bovis BCG; for MIC90: read-out: MIC90 M. bovis BCG
[1] = test system: TNF-α production by LPS-stimulated RAW 264.7 macrophages; test: Inhibition of TNF-α production by LPS-stimulated macrophages (ELISA); format: cell-based, murine; settings: for IC50: Mus musculus, read-out: IC50 TNF-α
[2] = test system: NO production by LPS-stimulated RAW 264.7 macrophages; test: Inhibition of NO production by LPS-stimulated macrophages (Griess); format: cell-based, murine; settings: mean ± SD, n = 3
RAW 264.7 macrophages = test: Macrophage cytotoxicity, LDH release assay; format: cell-based, murine; settings: LDH release
Experimental: (§5) Cytotoxic effects of chalcone samples on RAW 264.7 cell viability in cultures stimulated with LPS were determined using the LDH (lactate dehydrogenase) release assay as previously described [58]. Cytoplasmic enzyme LDH release into cell culture supernatants was detected using a commercial LDH kit (Doles, GO, Brazil). Cell death was expressed as percentage of LDH release, which was calculated using the following formula: percentage of LDH release = 100 × (test LDH release − spontaneous release)/(maximum release − spontaneous release). The maximum release was determined following dissolution of cell monolayers using 1% (vol/vol) Triton X-100. The spontaneous release was determined in supernatants from cultures incubated in the presence of LPS and DMSO, used as a solvent for chalcone samples.

[3] = Macrophage cytotoxicity, LDH release assay; format: cell-based, murine; settings: mouse, RAW 264.7 macrophages stimulated with LPS; LPS-stimulated RAW 264.7, LDH release; mean ± SD, n = 3
Experimental: as §5

M. tuberculosis M299 = test: microbe, parasite or virus in culture; format: cell-based, Mycobacterium tuberculosis; settings: Mycobacterium tuberculosis, M299, 120 h
[4] = test system: IL-1β production by LPS-stimulated RAW 264.7 macrophages; test: Inhibition of IL-1β production by LPS-stimulated macrophages (ELISA); format: cell-based, murine; settings: for IC50: Mus musculus, RAW264.7, 24 h, read-out: IC50 IL-1β
Experimental: (§1) Murine RAW 264.7 macrophage cell line (American Type Culture Collection, Manassas, VA, USA), was cultured in Dulbecco’s modified Eagle’s medium (DMEM-F12) supplemented with 10% Fetal Bovine Serum (FBS) and gentamicin (50 µg/mL) in 5% CO2 atmosphere at 37 °C. For experiments, the cells were seeded in 96-well plates (1 × 10^5 cells/well) and incubated for 24 h at 37 °C. For macrophage stimulation, the cell cultures were treated with LPS (1 µg/mL) and incubated for additional 24 h in the presence or absence of the chalcone samples (samples 1–41) that were used at concentrations of 100, 20, 4 and 0.8 µg/mL. In some experiments, a nitric oxide (NO) inhibitor, L-NMMA (20 μg/mL), was used as a positive control of NO inhibition, and a non-steroidal anti-inflammatory drug indomethacin, known to inhibit production of prostaglandins, was used as a positive control of PGE2 inhibition.
(§2) The frozen culture supernatants samples were thawed and immediately analyzed using commercially available enzyme-linked immunosorbent assay (ELISA) kits to measure TNF-α, IL-1β (BD Biosciences) and PGE2 (R&D Systems, Minneapolis, MN, USA), according to the manufacturer’s instructions. Standard curves for each mediator were generated using reference cytokine concentrations supplied by the manufacturer. Nitric oxide (NO) generation was assessed by the Griess method to measure nitrites, which are stable breakdown NO products.

[5] = test system: RAW 264.7 macrophages infected with M. tuberculosis H37Rv; test: Toxicity for infected macrophages, LDH assay; format: cell-based, murine; settings: Mus musculus, RAW264.7, 96 h; infected RAW 264.7, 4 days treatment; Figure 3D
Experimental: Cytotoxic effects of chalcone samples on RAW 264.7 cell viability in cultures stimulated with LPS were determined using the LDH (lactate dehydrogenase) release assay as previously described. Cytoplasmic enzyme LDH release into cell culture supernatants was detected using a commercial LDH kit (Doles, GO, Brazil). Cell death was expressed as percentage of LDH release, which was calculated using the following formula: percentage of LDH release = 100 × (test LDH release − spontaneous release)/(maximum release − spontaneous release). The maximum release was determined following dissolution of cell monolayers using 1% (vol/vol) Triton X-100. The spontaneous release was determined in supernatants from cultures incubated in the presence of LPS and DMSO, used as a solvent for chalcone samples.
(§3) RAW 264.7 macrophages were plated (1 × 10^5 cells/well) in antibiotic-free DMEM-F12 medium supplemented with 10% fetal bovine serum and incubated for 24 h. Prior to infection, mycobacterial suspensions were sonicated for 1 minute to disperse clumps and optical densities were adjusted to 0.1. The macrophage cultures were infected at a MOI of 1:1 (macrophage: bacterium). Phagocytosis was allowed to progress for 3 h. After 3 h, extracellular mycobacteria were removed by washing with PBS 1X and the infected cell monolayers were treated for 4 days with chalcone samples or rifampicin. Macrophage viability was monitored by LDH assay and was over 80% in all experiments. On day 4 after infection, cells were lysed cells with 1% saponin to release intracellular bacteria. Lysate aliquots were diluted 10-fold in PBS, plated in triplicates on 7H10 agar plates and incubated at 37 °C. After 21 days, total CFU were determined.

[6] = test system: iNOS expression in RAW 264.7 macrophages; test: iNOS expression by western blot in LPS-stimulated macrophages; format: cell-based, murine; settings: 20 µg/mL, LPS 1 µg/mL, 24 h
Experimental: (§4) RAW 264.7 macrophages were plated in Petri dishes (2 × 10^7 cells·mL^−1) and incubated for 24 h at 37 °C in 5% CO2 atmosphere. […] The resulted cellular monolayers were washed with PBS 1×, scraped and resuspended in PBS 1×, transferred and centrifuged to obtain cell pellets. The cells were lysed in buffer (10% SDS, 20% glycerol, 5% 2-mercaptoethanol, 2% bromophenol blue and 1 M Tris HCl, pH 6.8, containing protease inhibitors). Protein concentrations were estimated by Bradford method. For western blot analysis, cellular extract samples (60 µg) were submitted to 10% SDS–polyacrylamide gel electrophoresis under […] conditions and transferred to nitrocellulose membranes (Amersham Pharmacia Biotech, Uppsala, Sweden). After blocking with PBS-T (0.5% Tween-20) containing 2.5% (w/v) bovine serum albumin, the membranes were incubated with antibodies against iNOS (1:1000) and COX-2 (1:500) for 1 h at room temperature. After incubation period, the membranes were washed followed by treatment with horseradish peroxidase-conjugated secondary antibody. The resulting membranes were developed using diaminobenzidine/H2O2 as a substrate for peroxidase. In all electrophoresis experiments, a protein standard ladder (Full Range Rainbow-GE Healthcare, Piscataway, NJ, USA) was used to estimate proteins molecular size. Protein bands densitometric analysis was performed using ImageJ software for Windows (NIH, Bethesda, MD, USA). The value for stimulated condition (LPS- treated cells) was set as 1 and other conditions were recalculated correspondingly to allow ratio comparisons.

M. tuberculosis H37Rv = test: microbe, parasite or virus in culture; format: cell-based, Mycobacterium tuberculosis; settings: Mycobacterium tuberculosis
[7] = test system: PGE2 production by LPS-stimulated RAW 264.7 macrophages; test: Inhibition of PGE2 production by LPS-stimulated macrophages (ELISA); format: cell-based, murine; settings: Mus musculus, RAW264.7, 24 h, read-out: IC50 PGE2
Experimental: as §1, §2

[8] = test system: M. tuberculosis strain H37Rv in RAW 264.7 macrophages; test: Intracellular growth of M. tuberculosis H37Rv in infected macrophages (CFU); format: cell-based, Mycobacterium tuberculosis; settings: infected RAW 264.7, MOI 1:1, 4 days, Figure 3C; for MIC50: Mycobacterium tuberculosis, H37RV, 96 h
Experimental: as §3

[9] = test system: COX-2 expression in RAW 264.7 macrophages; test: COX-2 expression by western blot in LPS-stimulated macrophages; format: cell-based, murine; settings: 20 µg/mL, LPS 1 µg/mL, 24 h
Experimental: as §4

[10] = RAW264.7, LPS (1 µg/mL)-stimulated RAW 264.7, 24 h, mean ± SD, n = 3
[11] = Mus musculus, RAW264.7, 24 h, LPS (1 µg/mL)-stimulated RAW 264.7, 24 h, read-out: IC50 NO
[12] = LPS (1 µg/mL)-stimulated RAW 264.7, 24 h, read-out: IC50 NO
[13] = Mus musculus, RAW264.7, 24 h, read-out: IC50 NO, LPS (1 µg/mL)-stimulated RAW 264.7, 24 h
[14] = H37RV, 120 h, read-out: MIC50 M. tuberculosis H37Rv
[15] = Table 5, same values as M. tuberculosis H37Rv in Table 3, read-out: MIC50

Row | Compound | MIC50 (M. bovis BCG) | MIC90 (M. bovis BCG) | IC50 [1, 10] | IC50 [2, 11] | cytotoxicity profile (RAW 264.7 macrophages) | IC50 [3] | IC50 [4] | inhibition of iNOS expression [6] | IC50 [7] | further results
1 | CN(C)c1ccc(/C=C/C(=O)c2ccc(Br)cc2)cc1 [Chalcone 11] | 67.8 ± 3.8 µM (≈ 22.4 µg/mL) | 242 ± 2.6 µM (≈ 79.9 µg/mL) | > 303 µM | 41.3 ± 3.5 µM | worst cytotoxicity profiles | 132 ± 2.9 µM |  |  |  | 
2 | COc1ccc(/C=C/C(=O)c2ccc(OC)cc2)cc1 [Chalcone 29] | 32.5 ± 5.4 µM (≈ 8.72 µg/mL) | 339.5 ± 3.2 µM (≈ 91.1 µg/mL) | > 373 µM |  | worst cytotoxicity profiles | 93.9 ± 4.9 µM |  |  |  | IC50 [2, 12]: 13.1 ± 4.2 µM; IC50 [2, 13]: < 21 µM
3 | CN(C)c1ccc(/C=C/C(=O)c2ccccc2)cc1 [Chalcone 4] | 14.3 ± 5.8 µM (≈ 3.59 µg/mL) | 137 ± 7.9 µM (≈ 34.5 µg/mL) | 66.9 ± 4.3 µM |  |  | 348 ± 5.1 µM | 116 ± 5.5 µM | almost completely inhibit | 61.2 ± 0.5 µM | MIC50 (M. tuberculosis M299): 20.1 ± 1 µM (≈ 5.05 µg/mL); MIC90 (M. tuberculosis M299): 351.5 ± 1.8 µM (≈ 88.3 µg/mL); inhibition of IL-1β ([4]; LPS-stimulated RAW 264.7): potent inhibitors; IC50 [5]: 374 ± 6.3 µM; inhibition of TNF-α ([1]; LPS-stimulated RAW 264.7): strongly inhibit; IC50 [2, 12]: 12 ± 2.2 µM; IC50 [2, 13]: < 21 µM; MIC90 (M. tuberculosis H37Rv; H37RV, 120 h): 320 ± 4.8 µM (≈ 80.5 µg/mL); MIC50 (M. tuberculosis H37Rv; [14]): 19.7 ± 1.9 µM (≈ 4.95 µg/mL); MIC50 (M. tuberculosis H37Rv; [15]): 19.7 ± 1.9 µM (≈ 4.95 µg/mL); MIC50 [8]: 4.2 ± 0.3 µM (≈ 1.06 µg/mL); MIC50 intracellular M. tuberculosis H37Rv [8]: 4.2 ± 0.3 µM (≈ 1.06 µg/mL)
4 | O=C(/C=C/c1ccc(Cl)cc1)c1ccccc1Cl [Chalcone 33] | 45.7 ± 5.4 µM (≈ 12.7 µg/mL) | > 361 µM | 166 ± 5.2 µM |  |  | 351 ± 5 µM | 287 ± 3.6 µM | almost completely inhibit | 75.1 ± 3.5 µM | IC50 [5]: 271.7 ± 2.7 µM; MIC90 (M. tuberculosis H37Rv; H37RV, 120 h): 356 ± 4.9 µM (≈ 98.6 µg/mL); MIC50 (M. tuberculosis H37Rv; [14]): 36.9 ± 4.5 µM (≈ 10.2 µg/mL); MIC50 (M. tuberculosis H37Rv; [15]): 36.9 ± 4.5 µM (≈ 10.2 µg/mL); MIC50 [8]: 248 ± 3.7 µM (≈ 68.7 µg/mL)
5 | O=C(/C=C/c1ccc(Cl)cc1)c1ccc(Br)cc1 [Chalcone 10] | 22.3 ± 6.3 µM (≈ 7.17 µg/mL) | 288 ± 3.2 µM (≈ 92.6 µg/mL) | > 311 µM | 68.9 ± 4.3 µM | worst cytotoxicity profiles | 113.4 ± 0.5 µM |  |  |  | 
6 | COc1ccc(C(=O)/C=C/c2ccccc2Cl)cc1 [Chalcone 30] | 37.8 ± 6.4 µM (≈ 10.3 µg/mL) | 329 ± 3.6 µM (≈ 89.6 µg/mL) | > 367 µM | 23.9 ± 4.8 µM | worst cytotoxicity profiles | 100 ± 5.1 µM |  |  |  | 
7 | O=C(/C=C/c1ccccc1)c1ccccc1Cl [Chalcone 31] | 90.9 ± 5.5 µM (≈ 22.1 µg/mL) | 330 ± 4.2 µM (≈ 80.1 µg/mL) |  |  |  | 267 ± 4.5 µM | > 412 µM | almost completely inhibit | 10.2 ± 0.5 µM | IC50 ([1]; RAW264.7, 24 h): > 412 µM; abrogation of COX-2 expression [9]: most potent in abrogation
